Measurements reported in patent publication US11779019B2, “Composition made from polyol(s) and sterol(s) for use in the agricultural field” (ELICIT PLANT, priority 2017, dated 2023).

System: parsley (Petroselinum crispum)
Test: Resistance of parsley to flooding (abiotic) stress after watering with sample solutions
Assay type: in vivo
Settings: potted parsley, watering every three days with 40 ml of 97% water+3% of the sample, observed after 18 days, vs water control
Procedure: The effectiveness of each combination on the plants tolerance to abiotic stress is analyzed.
Before the treatment all the leaves of the parsley plants are cut off.
This abundant watering is intended to mimic a flooding stress.
Each batch consists of four pots.
After 18 days the plants are observed, and pictures are taken.

Question: For `CC[C@H](CC[C@@H](C)[C@H]1CC[C@H]2[C@@H]3CC=C4C[C@@H](O)CC[C@]4(C)[C@H]3CC[C@]12C)C(C)C` [A, beta-sitosterol], which “effect on the plants' tolerance to stress (flooding stress)” value is on record?
Answer: All the samples, except the beta sitosterol alone (sample A), show a positive effect
